The text below walks through data of patent US20110237599A1, “HETEROCYCLIC INHIBITORS OF HISTAMINE RECEPTORS FOR THE TREATMENT OF DISEASE” (Kalypsys, Inc., priority 2010, published 2011).

For orientation: EC50 means the concentration giving half of the maximal effect.

One test has as its target T1, human H4 (Homo sapiens, UniProt Q9H3N8).
T1 construct: host or cells: CHO-K1
The test can be described thus: In vitro histamine receptor cell-based assay (aequorin bioluminescence), H4 antagonism. The note with it: CHO-K1 cells expressing human H4, aequorin and Gα16; histamine at EC80; read-out: H4 Antagonist EC50. As for the experimental part:
(§1) The cell-based assays utilize an aequorin dependent bioluminescence signal. Doubly-transfected, stable CHO-K1 cell lines expressing human H1 or H4, mitochondrion-targeted aequorin, and (H4 only) human G protein Gα16 are obtained from Perkin-Elmer. Cells are maintained in F12 (Ham's) growth medium, containing 10% (vol./vol.) fetal bovine serum, penicillin (100 IU/mL), streptomycin (0.1 mg/mL), zeocin (0.25 mg/mL) and geneticin (0.40 mg/mL). Cell media components are from Invitrogen, Inc. One day prior to assay, the growth medium is replaced with the same, excluding zeocin and geneticin.
(§2) For assay preparation, growth medium is aspirated, and cells are rinsed with calcium-free, magnesium-free phosphate-buffered saline, followed by two to three minute incubation in Versene (Invitrogen, Inc.) at 37° C. Assay medium (DMEM:F12 [50:50], phenol-red free, containing 1 mg/mL protease-free bovine serum albumin) is added to collect the released cells, which are then centrifuged. The cell pellet is re-suspended in assay medium, centrifuged once more, and re-suspended in assay medium to a final density of 5×10^6 cells/mL. Coelenterazine-h dye (500 μM in ethanol) is added to a final concentration of 5 μM, and mixed immediately. The conical tube containing the cells is then wrapped with foil to protect the light-sensitive dye. The cells are incubated for four hours further at room temperature (approximately 21° C.) with end-over-end rotation to keep them in suspension.
(§3) Just before assay, the dye-loaded cells are diluted to 0.75×10^6 cells/mL (H1 receptor) or 1.5×10^6 cells/mL (H4 receptor) with additional assay medium. Cells are dispensed to 1536 well micro-titer plates at 3 μL/well. To assay receptor antagonism, 60 nl of 100× concentration test compounds in 100% dimethyl sulfoxide (DMSO) are dispensed to the wells, one compound per well, by passive pin transfer, and the plates are incubated for 15 minutes at room temperature. Assay plates are then transferred to a Lumilux bioluminescence plate reader (Perkin-Elmer) equipped with an automated 1536 disposable tip pipette. The pipette dispenses 3 μL/well of agonist (histamine, at twice the final concentration, where final concentration is a previously determined EC80) in assay medium, with concurrent bioluminescence detection. […]
(§4) CCD image capture on the Lumilux includes a 5 second baseline read prior to agonist addition, and generally a 40 second read per plate after agonist addition. A decrease in bioluminescence signal (measured either as area-under-the-curve, or maximum signal amplitude minus minimum signal amplitude) correlates with receptor antagonism in a dose dependent manner. […] Efficacy is measured as a percentage of positive control activity.

The next test has as its target T2, human H1 (Homo sapiens, UniProt P35367).
T2 construct: host or cells: CHO-K1
The test can be described thus: In vitro histamine receptor cell-based assay (aequorin bioluminescence), H1 antagonism. The note with it: CHO-K1 cells expressing human H1 and aequorin; histamine at EC80; read-out: H1 Antagonist EC50. As to the method:
as §1, §2, §3, §4

T1 sequence (Q9H3N8 whole entry): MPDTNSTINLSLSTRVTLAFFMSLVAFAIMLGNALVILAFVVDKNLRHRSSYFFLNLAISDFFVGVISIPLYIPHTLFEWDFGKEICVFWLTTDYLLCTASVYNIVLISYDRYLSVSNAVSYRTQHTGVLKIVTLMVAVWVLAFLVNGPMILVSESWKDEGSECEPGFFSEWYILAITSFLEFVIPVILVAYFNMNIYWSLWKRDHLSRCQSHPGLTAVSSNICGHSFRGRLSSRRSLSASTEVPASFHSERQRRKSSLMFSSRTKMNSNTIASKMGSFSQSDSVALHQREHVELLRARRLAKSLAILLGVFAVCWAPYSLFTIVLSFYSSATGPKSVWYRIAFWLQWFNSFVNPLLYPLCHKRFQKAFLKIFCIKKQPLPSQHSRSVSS
T2 sequence (P35367 whole entry): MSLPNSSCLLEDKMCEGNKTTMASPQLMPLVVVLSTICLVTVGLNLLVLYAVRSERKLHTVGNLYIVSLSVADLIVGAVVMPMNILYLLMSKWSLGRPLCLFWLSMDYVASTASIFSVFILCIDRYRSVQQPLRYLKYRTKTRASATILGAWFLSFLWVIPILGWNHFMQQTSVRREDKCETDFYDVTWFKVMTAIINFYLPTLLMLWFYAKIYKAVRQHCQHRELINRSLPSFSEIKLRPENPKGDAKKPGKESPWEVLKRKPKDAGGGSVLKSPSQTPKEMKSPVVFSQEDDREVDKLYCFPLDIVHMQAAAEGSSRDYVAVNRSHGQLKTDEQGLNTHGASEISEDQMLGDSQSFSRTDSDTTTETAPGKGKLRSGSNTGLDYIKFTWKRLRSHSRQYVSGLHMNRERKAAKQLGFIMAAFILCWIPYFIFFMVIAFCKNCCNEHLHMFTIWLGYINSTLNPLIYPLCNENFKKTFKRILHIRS

In the case of `Cc1nc2c3cc(Cl)sc3nc(N3CCN(C)CC3)n2n1` [Example 1, 8-chloro-2-methyl-5-(4-methylpiperazin-1-yl)thieno[3,2-e][1,2,4]triazolo[1,5-c]pyrimidine], the figures for the EC50 at human H4 and at human H1 were at most 10 µM and over 10 µM, respectively.

On to `Cc1nc2c3cc(Cl)sc3nc(N3CCNCC3)n2n1` [Example 2, 8-chloro-2-methyl-5-(piperazin-1-yl)thieno[3,2-e][1,2,4]-triazolo[1,5-c]pyrimidine], for which the figures for the EC50 at human H4 and on human H1 were at most 10 µM and over 10 µM, respectively.

Turning to `Cc1nc2c3sc(Cl)cc3nc(N3CCN(C)CC3)n2n1` [Example 3, 8-chloro-2-methyl-5-(4-methylpiperazin-1-yl)thieno[2,3-e][1,2,4]triazolo[1,5-c]pyrimidine], the EC50 is at most 10 µM at human H4 and over 10 µM at human H1.

As to `Cc1nc2c3sc(Cl)cc3nc(N3CCNCC3)n2n1` [Example 4, 8-chloro-2-methyl-5-(piperazin-1-yl)thieno[2,3-e][1,2,4]triazolo[1,5-c]pyrimidine], the EC50 on human H4 and on human H1 was over 10 µM each time.
